Assays:
HTLV III (Stamm RF) = assay: Activity against HIV (p24 antigen capture assay in infected C8166 cells); assay type: cell-based; conditions: concentration giving 50% protection; C8166 cells infected with 10-fold TCD₅₀, 72 h incubation at 37°C, viral protein 24 antigen in supernatant; read-out: IC₅₀
Procedure: (B) Wirksamkeit gegen HIV
In diesem Versuch verwendet man HTLV III (Stamm RF), gezüchtet in C8166-Zellen (eine menschliche CD4⁺ T-Lymphoblastenlinie), RPM1 1640 Medium mit Bicarbonatpuffer, Antibiotika und 10%igem fötalem Rinderserum. Eine Zellensuspen sion wird mit der 10-fachen TCD₅₀ des Virus infiziert. Man lässt 90 Minuten bei 37°C adsorbieren. Die Zellen werden mit dem Medium gewaschen. Der Versuch wird in 6 ml Gewebekulturröhren durchgeführt. Jedes Rohr enthalt 2 x 10⁵ infizierte Zellen in 1,5 ml Medium. Es werden 15 µl einer Lösung der Substanz in wässrigem Medium oder in DMSO zugesetzt. Nach 72 Stunden Inkubation bei 37°C in einer feuchten 5% CO₂ enthaltenden Atmosphäre werden die Kulturen zentrifugiert. Ein aliquoter Teil des Ueberstandes wird solubilisiert und einem Antigenabfangversuch unterworfen unter Verwendung eines primären Antiserums mit besonderer Reaktivität gegen virales Protein 24 und eines Meerrettich-Peroxidase-Detektionssystems. Die Farbenerzeugung wird spektrophotometrisch gemessen und in Abhängigkeit der Konzentration der Testsubstanz dargestellt. Die einen 50%igen Schutz erzeugende Konzentration (IC₅₀) wird ermittelt. In diesem Test hat DFAC ein IC₅₀ von 1 µM.

[1] = test system: Schaf-Lentiviren des Stammes WLC-1; assay: Activity against sheep lentivirus (protection from cytopathic effect in SCP cells); assay type: cell-based; conditions: minimal concentration giving 100% protection from cytopathic effect, 12 days incubation at 37°C, crystal violet staining, visual reading
Text: (A) Aktivität gegen Schaf-Lentiviren
In diesem Versuch verwendet man Schaf-Lentiviren des Stammes WLC-1, der im Plexus chorioideus (SCP) des Schafs mit 10% fötalem Rinderserum enthaltenden Medium gezüchtet wurde. Die Verbindungen werden in 96 Vertiefungen enthaltenden Platten getestet. Jede Vertiefung enthält 10⁴SCP-Zellen, die 48 Stunden inkubiert wurden. Die Testverbindungen werden, gelöst in Dimethylsulfoxid (DMSO), bis zu einer Endkonzentration von 1% DMSO hinzugefügt, zusammen mit einem Virus-Inokulum, das innert 12 Tagen einen 100%igen cytopathischen Effekt bewirkt. Nach 12-tägiger Inkubation bei 37°C werden die Platten mit Kristallviolett angefärbt. Effekt in den die Testverbindungen enthaltenden Vertiefungen wird visuell durch Vergleich mit lediglich den Virus enthaltenden Vertiefungen und nicht-infizierten Vertiefungen ermittelt. Die Wirksamkeit (MPC) ist die minimale Konzentration der Testverbindung, die einen 100%igen Schutz bewirkt. In diesem Versuch hat DFAC einen MPC von 2,5 µM.

## Nc1ccn([C@@H]2O[C@H](CO)C[C@@H]2F)c(=O)n1 [DFAC, 1-(2′,3′-Dideoxy-2′-fluor-b-D-arabinofuranosyl)cytosin]
HTLV III (Stamm RF)
  IC50: 1 µM
[1]
  MPC: 2,5 µM
